Patent US9540323B2 (BRISTOL-MYERS SQUIBB COMPANY, priority 2012, dated 2017)
Where a name gives a salt, the structure may show the parent alone. Read-outs that look alike come from different tables or passages of the source.

System: human platelet rich plasma (PRP)
Assay: ADP induced platelet aggregation assay
[1] = Homo sapiens, Platelet, 5 min, read-out: PA IC50 (μM) @ 10 μM ADP, human PRP, 10 μM ADP, AUC at 5 minute
[2] = read-out: PA IC50 (μM) @ 10 μM ADP, human PRP, 10 μM ADP, AUC at 5 minute

`CC1(C)CN(c2ccccc2NC(=O)Nc2nc3ccc(F)cc3s2)c2c(O)cc(F)c(-c3nc4cc(Cl)ccc4s3)c21` [Example 138, 1-(2-(4-(5-Chlorobenzo[d]thiazol-2-yl)-5-fluoro-7-hydroxy-3,3-dimethylindolin-1-yl)phenyl)-3-(6-fluorobenzo[d]thiazol-2-yl)urea] showed an IC50 [1] of 0.47 µM.
For `CC1(C)CN(c2ccccc2NC(=O)Nc2nc3ccc(Cl)nc3s2)c2c(O)cc(F)c(-c3ccc(Cl)s3)c21` [Example 145, 1-(5-Chlorothiazolo[5,4-b]pyridin-2-yl)-3-(2-(4-(5-chlorothiophen-2-yl)-5-fluoro-7-hydroxy-3,3-dimethylindolin-1-yl)phenyl)urea], the IC50 [1] was 0.13 µM.
`CC1(C)CN(c2ccccc2NC(=O)Nc2ccc(OC(F)(F)F)cc2)c2c(O)c(F)cc(-c3nc4cc(Cl)ccc4s3)c21` [Example 177, 1-(2-(4-(5-Chlorobenzo[d]thiazol-2-yl)-6-fluoro-7-hydroxy-3,3-dimethylindolin-1-yl)phenyl)-3-(4-(trifluoromethoxy)phenyl)urea] gave an IC50 [1] of 2.3 µM.
With `CC1(C)CN(c2ccccc2NC(=O)Nc2ccc(OC(F)(F)F)cc2)c2c(O)cc(F)c(-c3ccc(Cl)s3)c21` [Example 142, 1-(2-(4-(5-Chlorothiophen-2-yl)-5-fluoro-7-hydroxy-3,3-dimethylindolin-1-yl)phenyl)-3-(4-(trifluoromethoxy)phenyl)urea] the IC50 [1] was 0.13 µM.
Compound `CC1(C)CN(c2ccccc2NC(=O)Nc2csc(Cl)n2)c2c(O)cc(F)c(-c3ccc(Cl)cc3)c21` [Example 221, 1-(2-(4-(4-Chlorophenyl)-5-fluoro-7-hydroxy-3,3-dimethylindolin-1-yl)phenyl)-3-(2-chlorothiazol-4-yl)urea] has an IC50 [2] of 0.13 µM.
`CC1(C)CN(c2ccccc2NC(=O)Nc2nc3ccc(Cl)cc3s2)c2c(O)cc(F)c(-c3nc4cc(Cl)ccc4s3)c21` [Example 156, 1-(6-Chlorobenzo[d]thiazol-2-yl)-3-(2-(4-(5-chlorobenzo[d]thiazol-2-yl)-5-fluoro-7-hydroxy-3,3-dimethylindolin-1-yl)phenyl)urea] gave an IC50 [1] of 0.97 µM.
Compound `CC1(C)CN(c2ccccc2NC(=O)Nc2nc3ccc(F)cc3s2)c2c(O)ccc(-c3nc4ccc(Cl)cc4s3)c21` [Example 137, 1-(2-(4-(6-Chlorobenzo[d]thiazol-2-yl)-7-hydroxy-3,3-dimethylindolin-1-yl)phenyl)-3-(6-fluorobenzo[d]thiazol-2-yl)urea] has an IC50 [1] of 1.06 µM.
`CC1(C)CN(c2ccccc2NC(=O)Nc2ccc(OC(F)(F)F)cc2)c2c(O)cc(F)c(-c3cc(C(F)(F)F)n[nH]3)c21` [Example 275, 1-(2-(5-Fluoro-7-hydroxy-3,3-dimethyl 4-(3-(trifluoromethyl)-1H-pyrazol-5-yl)indolin-1-yl)phenyl)-3-(4-(trifluoromethoxy)phenyl)urea] showed an IC50 [1] of 5.69 µM.
In the case of `COc1cncc(-c2ccc(O)c3c2C(C)(C)CN3c2ccccc2NC(=O)Nc2ccc(OC(F)(F)F)cc2)c1` [Example 118, 1-(2-(7-Hydroxy-4-(5-methoxypyridin-3-yl)-3,3-dimethylindolin-1-yl)phenyl)-3-(4-(trifluoromethoxy)phenyl) urea], the IC50 [1] is reported as 0.6 µM.
`CC1(C)CN(c2ccccc2NC(=O)Nc2ccc(OC(F)(F)F)cc2)c2c(O)cc(F)c(-c3ncc(Br)cn3)c21` [Example 166, 1-(2-(4-(5-Bromopyrimidin-2-yl)-5-fluoro-7-hydroxy-3,3-dimethylindolin-1-yl)phenyl)-3-(4-(trifluoromethoxy)phenyl)urea] was tested, and the IC50 [1] was 1.25 µM.
With `CC1(C)CN(c2ccccc2NC(=O)Nc2csc(Cl)n2)c2c(O)cc(F)c(-c3ccc(C(F)(F)F)cn3)c21` [Example 169, 1-(2-Chlorothiazol-4-yl)-3-(2-(5-fluoro-7-hydroxy-3,3-dimethyl-4-(5-(trifluoromethyl)pyridin-2-yl)indolin-1-yl)phenyl)urea] the IC50 [1] was 0.1 µM.
Compound `CC1(C)CN(c2ccccc2NC(=O)Nc2ccc(OC(F)(F)F)cc2)c2c(O)ccc(-c3nc4ccc(Cl)cc4s3)c21` [Example 136, 1-(2-(4-(6-Chlorobenzo[d]thiazol-2-yl)-7-hydroxy-3,3-dimethylindolin-1-yl)phenyl)-3-(4-(trifluoromethoxy)phenyl)urea] has an IC50 [1] of 0.5 µM.
`CC1(C)CN(c2ccccc2NC(=O)Nc2nc3ccc(Cl)cc3s2)c2c(O)ccc(-c3nc4cc(F)ccc4s3)c21` [Example 172, 1-(6-Chlorobenzo[d]thiazol-2-yl)-3-(2-(4-(5-fluorobenzo[d]thiazol-2-yl)-7-hydroxy-3,3-dimethylindolin-1-yl)phenyl)urea, TFA] showed an IC50 [1] of 0.26 µM.
In the case of `CC1(C)CN(c2ccccc2NC(=O)Nc2nc3ccc(F)cc3s2)c2c(O)cc(F)c(-c3ccc(Cl)s3)c21` [Example 140, 1-(2-(4-(5-Chlorothiophen-2-yl)-5-fluoro-7-hydroxy-3,3-dimethylindolin-1-yl)phenyl)-3-(6-fluorobenzo[d]thiazol-2-yl)urea], the IC50 [1] is reported as 0.17 µM.
`CC1(C)CN(c2ccccc2NC(=O)Nc2csc(Cl)n2)c2c(O)cc(F)c(-c3nc4cc(Cl)ccc4s3)c21` [Example 167, 1-(2-(4-(5-Chlorobenzo[d]thiazol-2-yl)-5-fluoro-7-hydroxy-3,3-dimethylindolin-1-yl)phenyl)-3-(2-chlorothiazol-4-yl)urea] showed an IC50 [1] of 0.47 µM.
`COC(=O)c1ccc(-c2c(F)cc(O)c3c2C(C)(C)CN3c2ccccc2NC(=O)Nc2ccc(OC(F)(F)F)cc2)cc1` [Example 244, Methyl 4-(5-fluoro-7-hydroxy-3,3-dimethyl-1-(2-(3-(4-(trifluoromethoxy)phenyl)ureido)phenyl)indolin-4-yl)benzoate] gave an IC50 [1] of 0.3 µM.
Compound `CCC1(CC)CN(c2ccccc2NC(=O)Nc2nc3ccc(F)cc3s2)c2c(O)ccc(F)c21` [Example 32, 1-(2-(3,3-Diethyl-4-fluoro-7-hydroxyindolin-1-yl)phenyl)-3-(6-fluorobenzo[d]thiazol-2-yl)urea] has an IC50 [1] of 0.37 µM.
With `CC1(C)CN(c2ccccc2NC(=O)Nc2nc3ccc(Cl)cc3s2)c2c(O)cc(F)c(-c3nc4ccc(F)cc4s3)c21` [Example 139, 1-(6-Chlorobenzo[d]thiazol-2-yl)-3-(2-(5-fluoro-4-(6-fluorobenzo[d]thiazol-2-yl)-7-hydroxy-3,3-dimethylindolin-1-yl)phenyl)urea] the IC50 [1] was 0.57 µM.
`CC1(C)CN(c2ccccc2NC(=O)Nc2nc3ccc(Cl)nc3s2)c2c(O)cc(F)c(-c3nc4cc(Cl)ccc4s3)c21` [Example 141, 1-(2-(4-(5-Chlorobenzo[d]thiazol-2-yl)-5-fluoro-7-hydroxy-3,3-dimethylindolin-1-yl)phenyl)-3-(5-chlorothiazolo[5,4-b]pyridin-2-yl)urea] showed an IC50 [1] of 0.55 µM.
`CC1(C)CN(c2ccccc2NC(=O)Nc2ccc(OC(F)(F)F)cc2)c2c(O)ccc(-c3ccc(F)nc3)c21` [Example 115, 1-(2-(4-(6-Fluoropyridin-3-yl)-7-hydroxy-3,3-dimethylindolin-1-yl)phenyl)-3-(4-(trifluoromethoxy)phenyl) urea] was tested, and the IC50 [1] was 0.31 µM.
Work on `CC1(C)CN(c2ccccc2NC(=O)Nc2nc3ccc(F)cc3s2)c2c(O)cc(F)c(-c3ccc(F)cc3)c21` [Example 219, 1-(2-(5-Fluoro-4-(4-fluorophenyl)-7-hydroxy-3,3-dimethylindolin-1-yl)phenyl)-3-(6-fluorobenzo[d]thiazol-2-yl)urea] yielded an IC50 [2] of 0.36 µM.
Compound `CC1(C)CN(c2ccccc2NC(=O)Nc2ccc(OC(F)(F)F)cc2)c2c(O)ccc(-c3ccc(Cl)cn3)c21` [Example 122, 1-(2-(4-(5-Chloropyridin-2-yl)-7-hydroxy-3,3-dimethylindolin-1-yl)phenyl)-3-(4-(trifluoromethoxy)phenyl)urea] has an IC50 [1] of 0.51 µM.
